# Residues, ends and D or L forms follow the SMILES beside them. *: point of attachment. NH(β-GlcNAc) = CC(=O)N[C@@H]1[C@@H](O)[C@H](O)[C@@H](CO)O[C@H]1N*
# Key:
# [1] = test system: Staphylococcus aureus ATCC 29,213; assay: microbe, parasite or virus in culture
# Protocol: (§1) Starting from a peptide stock solution, two-fold serial dilutions were sequentially carried out, accordingly to the broth microdilution method. Following over-night incubation, MIC100 values were determined as the lowest peptide concentration needed for no visible bacterial growth.
# [2] = test system: Bacillus subtilis 6633; assay: microbe, parasite or virus in culture
# Protocol: as §1
# [3] = test system: Bacillus globigii TNO BMO13; assay: microbe, parasite or virus in culture
# Protocol: as §1
# [4] = test system: MRSA WKZ-2; assay: microbe, parasite or virus in culture
# Protocol: as §1
# [5] = test system: Pseudomonas aeruginosa 01; assay: microbe, parasite or virus in culture
# Protocol: as §1
# [6] = test system: Escherichia coli ATCC 25,922; assay: microbe, parasite or virus in culture
# Protocol: as §1
# [7] = test system: Klebsiella pneumoniae ATCC 700,603; assay: microbe, parasite or virus in culture
# Protocol: as §1
# [8] = test system: Acinetobacter baumannii ATCC 17,978; assay: microbe, parasite or virus in culture
# Protocol: as §1
# [9] = test system: Escherichia coli ATCC 25,922; details: for MIC after treatment with pepsin / MIC after treatment with α-chymotrypsin: E. coli ATCC 25,922, 37 °C, 15 min, then MIC; for MIC after treatment with pepsin: 100 μM peptide incubated with 100 nM pepsin; for MIC after treatment with α-chymotrypsin: 100 μM peptide incubated with 100 nM α-chymotrypsin
# Protocol: as §1
# (§2) To analyze the stability of the peptides to the proteases, 100 μM of LL-III and glycosylated LL-III were incubated with 100 nM of α-chymotrypsin or pepsin at 37 °C for 15 min and then antimicrobial activity were assayed as reported above. The peptide solution without proteases was used as the control group.
# [10] = test system: Escherichia coli ATCC 25,922; details: E. coli ATCC 25,922; peptide incubated in water without proteases or serum
# Protocol: as §1, §2
# (§3) For comparison, the MIC values of untreated peptides (incubated in water) were also determined.
# [11] = test system: Escherichia coli ATCC 25,922; details: E. coli ATCC 25,922; 200 μM peptide solution with fetal bovine serum 1:1 (v/v), 24 h, 37 °C, then MIC
# Protocol: as §1, §3
# [12] = test system: BALB/c 3T3 cells (normal murine fibroblasts); details: BALB/c 3T3, two-fold dilutions of peptide, 24 h, 37 °C, 5% CO2, three independent experiments
# Protocol: In brief, 5·10^3 cells were seeded on a 96-well plate and after 16 h treated with increasing concentrations of peptides for 24 h at 37 °C and 5% CO2. Cell viability was analyzed by performing the (3-(4,5-dimethylthiazol-2-yl)-2,5 diphenyltetrazolium bromide) reduction inhibition assay (MTT assay)[42].
# Normal and transformed murine fibroblasts, 3T3 and SVT2, were treated with increasing concentration of the two peptides. After 24 h of incubation at 37 °C and 5% CO2, cells mitochondrial activity was measured performing MTT assay.
# [13] = Staphylococcus aureus ATCC 29,213, 1 × 10^6 CFU/mL, 0.5X Nutrient Broth, over-night, MIC100
# [14] = Bacillus subtilis 6633, 1 × 10^6 CFU/mL, 0.5X Nutrient Broth, over-night, MIC100
# [15] = Bacillus globigii TNO BMO13, 1 × 10^6 CFU/mL, 0.5X Nutrient Broth, over-night, MIC100
# [16] = MRSA WKZ-2, 1 × 10^6 CFU/mL, 0.5X Nutrient Broth, over-night, MIC100
# [17] = Pseudomonas aeruginosa 01, 1 × 10^6 CFU/mL, 0.5X Nutrient Broth, over-night, MIC100
# [18] = Escherichia coli ATCC 25,922, 1 × 10^6 CFU/mL, 0.5X Nutrient Broth, over-night, MIC100
# [19] = Klebsiella pneumoniae ATCC 700,603, 1 × 10^6 CFU/mL, 0.5X Nutrient Broth, over-night, MIC100
# [20] = Acinetobacter baumannii ATCC 17,978, 1 × 10^6 CFU/mL, 0.5X Nutrient Broth, over-night, MIC100
# [21] = from MIC values against E. coli after 15 min at 37 °C with protease
SMILES,MIC after treatment with pepsin [9],MIC after treatment with α-chymotrypsin [9],MIC after treatment in water (control) [10],MIC after treatment with 50% FBS [11],"MIC [1, 13]","MIC [2, 14]","MIC [3, 15]","MIC [4, 16]","MIC [5, 17]","MIC [6, 18]","MIC [7, 19]","MIC [8, 20]",also measured
O=C(O)c1cn(C2CC2)c2cc(N3CCNCC3)c(F)cc2c1=O [Ciprofloxacin],–,–,–,–,–,–,–,–,–,–,–,–,"MIC ([1]; Staphylococcus aureus, ATCC29): 0.6 µM; MIC ([2]; Bacillus subtilis, 6633): 0.15 µM; MIC ([3]; Bacillus subtilis, TNOBMO13): 0.3 µM; MIC ([4]; Staphylococcus aureus, MRSA): 0.3 µM; MIC ([5]; Pseudomonas aeruginosa, 01): 0.3 µM; MIC ([6]; Escherichia coli): 0.15 µM; MIC ([7]; Klebsiella pneumoniae): 1.2 µM; MIC ([8]; Acinetobacter baumannii): 0.15 µM"
"CC[C@H](C)[C@H](NC(=O)[C@H](CCCCN)NC(=O)[C@H](CCCCN)NC(=O)[C@H](Cc1c[nH]c2ccccc12)NC(=O)[C@H](CC(N)=O)NC(=O)[C@@H](N)C(C)C)C(=O)N[C@@H](CC(C)C)C(=O)NCC(=O)N[C@@H](CCCCN)C(=O)N[C@H](C(=O)N[C@H](C(=O)N[C@@H](CCCCN)C(=O)N[C@H](C(=O)N[C@H](C(=O)N[C@@H](CCCCN)C(N)=O)C(C)C)C(C)C)[C@@H](C)CC)[C@@H](C)CC [LL-III, Lasioglossin III] (H-VNWKKILGKIIKVVK-NH2)",12.5 µM,25 µM,3.12 µM,6.25 µM,1.56 µM,1.56 µM,1.56 µM,3.12 µM,1.56 µM,3.12 µM,3.12 µM,3.12 µM,–
CC[C@H](C)[C@H](NC(=O)[C@H](CCCCN)NC(=O)[C@H](CCCCN)NC(=O)[C@H](Cc1c[nH]c2ccccc12)NC(=O)[C@H](CC(=O)N[C@@H]1O[C@H](CO)[C@@H](O)[C@H](O)[C@H]1NC(C)=O)NC(=O)[C@@H](N)C(C)C)C(=O)N[C@@H](CC(C)C)C(=O)NCC(=O)N[C@@H](CCCCN)C(=O)N[C@H](C(=O)N[C@H](C(=O)N[C@@H](CCCCN)C(=O)N[C@H](C(=O)N[C@H](C(=O)N[C@@H](CCCCN)C(N)=O)C(C)C)C(C)C)[C@@H](C)CC)[C@@H](C)CC [g-LL-III] (H-VD(NH(β-GlcNAc))WKKILGKIIKVVK-NH2),6.25 µM,6.25 µM,3.12 µM,3.12 µM,1.56 µM,1.56 µM,1.56 µM,3.12 µM,3.12 µM,3.12 µM,3.12 µM,3.12 µM,"reduction of susceptibility to pepsin versus parental peptide [9, 21]: 2 times; reduction of susceptibility to α-chymotrypsin versus parental peptide [9, 21]: 4 times; cell viability (MTT), g-LL-III compared with LL-III [12]: no significant differences"
